Data as given in ChEMBL document CHEMBL3832042, “DailyMed|setid=5d4f90d4-e535-4681-a863-3d774a2064e6 | ANASTROZOLE - anastrozole tablet|PD-Rx Pharmaceuticals, Inc”.
“And” between values parts separate entries of the source, which are not always exact repeats. Equal values may be shown once.

Experiments:
[1] = tested on: Homo sapiens; test: Evaluation of pharmacokinetic parameters for Anastrazole following multiple oral administration of Anastrazole to Caucasian and to Japanese female subjects.; type: ADME, organism-based; conditions: in vivo, dose 1 mg, dosed compound id 24, dosed compound name ANASTROZOLE, gender female, regimen every 24h, study dosing duration 16 days, tissue Plasma
[2] = Evaluation of pharmacokinetic parameters for Anastrazole following single oral administration of Anastrazole to subjects under fatsed and fed conditions.; conditions: human, in vivo

Cmin ss [1]: 30.4 ng/mL and 25.7 ng/mL
half-life [2]: 50 h
Compound: CC(C)(C#N)c1cc(Cn2cncn2)cc(C(C)(C)C#N)c1 [ANASTROZOLE]
